Measurements from ChEMBL document CHEMBL1146545, “Ainigmaptilones, sesquiterpenes from the Antarctic gorgonian coral Ainigmaptilon antarcticus” (J Nat Prod, 2003).
The source made the active and inactive calls. The calls are words filed in the database; no cut-off is given here.

Tested on: Antarctic bacterium
Assay: Antimicrobial activity against Antarctic bacteria at 5 mg/mL
Format: functional, organism-based

C=C(C)[C@@H]1CC[C@]2(CO)C=CC(=O)[C@@H](C)[C@H]2C1 was tested. Which Activity did it give?
The Activity was “Active”.
